# Experimental data taken from PubChem BioAssay (NCI).
# “And” between values parts separate entries of the source, which are not always exact repeats. Equal entries are not always repeated.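 All cell lines were grown in 96-well plates and treated with compound for 48 hours. GI50: concentration for 50% inhibition of growth. TGI: total growth inhibition.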
# Key:
# Assay in all cases: DTP human tumour cell line panel, 48 h
# OVCAR-4 ovarian = system: OVCAR-4 ovarian
# BT-549 breast = system: BT-549 breast
# NCI-H460 lung = system: NCI-H460 lung
# SK-MEL-5 melanoma = system: SK-MEL-5 melanoma
# HCC-2998 colon = system: HCC-2998 colon
# SK-MEL-28 melanoma = system: SK-MEL-28 melanoma
# SK-MEL-2 melanoma = system: SK-MEL-2 melanoma
# OVCAR-3 ovarian = system: OVCAR-3 ovarian
# HCT-116 colon = system: HCT-116 colon
# NCI-H23 lung = system: NCI-H23 lung
# K-562 leukemia = system: K-562 leukemia
SMILES,TGI (OVCAR-4 ovarian) [µM],TGI (BT-549 breast) [µM],TGI (NCI-H460 lung) [µM],TGI (SK-MEL-5 melanoma),TGI (HCC-2998 colon),TGI (SK-MEL-28 melanoma) [µM],TGI (SK-MEL-2 melanoma) [µM],TGI (OVCAR-3 ovarian) [µM],TGI (HCT-116 colon) [µM],TGI (NCI-H23 lung) [µM],TGI (K-562 leukemia) [µM],GI50 (OVCAR-4 ovarian),GI50 (SK-MEL-5 melanoma),GI50 (SK-MEL-28 melanoma),GI50 (K-562 leukemia),GI50 (OVCAR-3 ovarian),GI50 (BT-549 breast) [µM],GI50 (SK-MEL-2 melanoma) [µM],GI50 (NCI-H23 lung) [µM]
Nc1ccc2ccc(-c3ccc[nH]3)nc2n1,> 100,> 100,> 100,> 100 µM,> 100 µM,> 100,> 100,> 100,> 100,> 100,,,,,,,,,
O=[N+]([O-])c1ccc(N2N=C(c3ccc4ccccc4c3O)CC2c2ccc(Cl)cc2)c([N+](=O)[O-])c1 (stereo not given),> 100,> 100,> 100,63.3 µM,> 100 µM,> 100,> 100,79.9,> 100,> 100,52,,,,,,,,
CCOC(=O)C(=CN1CCNC1=S)C(=O)OCC,> 100,> 100,> 100,> 100 µM,> 100 µM,> 100,> 100,> 32.4,> 100,> 100,> 100,,,,,,,,
CC(=O)N(C(C)=O)n1c(Cc2ccc(C)cc2)nn(C(C)=O)c1=O,> 100,> 100,> 100,> 100 µM,> 100 µM,> 100,> 100,> 100,> 100,> 100,> 100,,,,,,,,
Cc1ccc(S(=O)(=O)N/N=C2/CCC(C(C)(C)C)CC2Br)cc1 (stereo not given),33.6,75.1,> 100,29.5 µM,,54.5,28.1,48.9,51.5,> 100,40.1,,,,,,,,
CC(=O)NC1(C(=O)N[C@@H](Cc2ccccc2)C(=O)NC2CCCCC2)Cc2ccc3ccccc3c2-c2c(ccc3ccccc23)C1,> 100,> 100,> 100,12.1 µM and 23.7 µM,> 100 µM and 89.5 µM,> 100,> 100,> 100,> 100,,> 100,1.17 µM and 6.26 µM,2.9 µM and 6.71 µM,9.72 µM and 23.1 µM,2.7 µM and 7.67 µM,2.91 µM and 7.77 µM,,,
CCCc1nnc2sc(COc3cc(Cl)c(OCc4nn5c(CCC)nnc5s4)cc3Cl)nn12,80.5,> 100,> 100,32.1 µM,> 100 µM,> 100,> 100,78.5,> 100,> 100,> 100,,,,,,,,
CC12ON(P(=O)(c3ccccc3)c3ccccc3)C(C)(c3ccccc31)c1ccccc12,> 100,> 100,> 100,> 100 µM,> 100 µM,> 100,> 100,> 100,> 100,> 100,> 100,,,,,,,,
CCOc1ccc(/C=C2\NC(=S)N(/C=C3\C(=O)Oc4ccccc4C3=O)C2=O)cc1,66.5,54.9,51.8,41.5 µM,> 100 µM,83.9,48,44.6,39.9,80.8,,,,,,,,,
O=C1C2=C(SCCS2)C(=O)c2c(Sc3ccc(Cl)cc3)c(Sc3ccc(Cl)cc3)c(Sc3ccc(Cl)cc3)c(Sc3ccc(Cl)cc3)c21,> 100,> 100,> 100,> 100 µM,> 100 µM,,> 100,> 100,> 100,> 100,,,,,,,,,
COc1c(C)c(C/C=C(\C)CC/C=C(\C)CC/C=C(\C)CCC=C(C)C)c(OC)c2ccccc12,> 100,> 100,> 100,> 100 µM,,,> 100,> 100,> 100,> 100,> 100,,,,,,,,
CC(=O)OC(C)c1cc2c(s1)C(=O)c1c(C(C)OC(C)=O)csc1C2=O (stereo not given),2.75,3.83,1.58,1.83 µM,3.1 µM,3.27,3.56,0.724,10.2,2.29,3.26,,0.631 µM,1.65 µM,,0.278 µM,2.14,1.56,0.878
c1csc(-c2ccsc2-c2ccsc2)c1,> 100,> 100,> 100,> 100 µM,> 100 µM,> 100,42.3,87.6,> 100,> 100,> 100,,,,,,,,
O=C(C(Cl)=C(N1CCCCC1)N1CCCCC1)C(Cl)Cl,> 100,> 100,> 100,> 100 µM,> 100 µM,> 100,,> 100,> 100,> 100,> 100,,,,,,,,
COC([C@@H](OC(=O)c1ccccc1)[C@H](OC(=O)c1ccccc1)C(O)COC(=O)c1ccccc1)n1cc(C)c(=O)[nH]c1=O (stereo not given in full),82.4,77,> 100,24 µM,,> 100,67.1,97.1,87.8,> 100,> 100,,,,,,,,
Cc1c(O)c(OC2OC(CO)C(O)C(O)C2O)cc2c1C=C[C@@H]1[C@@]2(C)C(=O)C[C@]2(C)[C@@H]([C@@](C)(O)C(=O)CCC(C)(C)O)[C@H](O)C[C@@]12C (stereo not given in full),> 100,49.5,48,43.6 µM,41 µM,43.1,68.7,46.9,37.8,37.9,> 100,,,,,,,,
Cc1ccc2c(C(=O)c3c(C)n(CCN4CCOCC4)c4ccccc34)cccc2c1,61.1,51.6,89.3,13 µM,,> 100,42.4,12.4,40.9,> 100,> 100,,,,,,,,
O=C(c1ccc(O)c([N+](=O)[O-])c1)c1ccc(O)c([N+](=O)[O-])c1,> 100,> 100,> 100,> 100 µM,> 100 µM,> 100,> 100,> 100,> 100,> 100,> 100,,,,,,,,
CC(C)(C)OC(=O)N1[C@@H]2Cc3ccc(N)cc3[C@@]1(C)c1ccccc12,> 100,43.4,48.8,12.4 µM,47.2 µM,,43.4,68,37.1,60.4,62.6,,,,,,,,
CN(Cc1cnc2nc(N)nc(N)c2n1)c1ccc(C(=O)NC(CCC(=O)NC(CC(P(=O)(O)O)P(=O)(O)O)C(=O)O)C(=O)O)cc1 (stereo not given),> 100,> 100,> 100,> 100 µM,,> 100,> 100,> 100,> 100,> 100,,,,,,,,,

SMILES,TGI (OVCAR-4 ovarian) [µM],TGI (BT-549 breast) [µM],TGI (NCI-H460 lung) [µM],TGI (SK-MEL-5 melanoma),TGI (HCC-2998 colon),TGI (SK-MEL-28 melanoma) [µM],TGI (SK-MEL-2 melanoma) [µM],TGI (OVCAR-3 ovarian) [µM],TGI (HCT-116 colon) [µM],TGI (NCI-H23 lung) [µM],TGI (K-562 leukemia) [µM],GI50 (OVCAR-4 ovarian),GI50 (SK-MEL-5 melanoma),GI50 (SK-MEL-28 melanoma),GI50 (K-562 leukemia),GI50 (OVCAR-3 ovarian),GI50 (BT-549 breast) [µM],GI50 (SK-MEL-2 melanoma) [µM],GI50 (NCI-H23 lung) [µM]
N[C@H](CCC(=O)NCP(=O)(O)O)C(=O)O,,> 100,> 100,> 100 µM,> 100 µM,> 100,> 100,> 100,> 100,> 100,> 100,,,,,,,,
CCC(=O)/C(=C\I)c1ccccc1,,3.3,25.5,,,6.45,4.41,3.12,3.3,14.4,> 100,,,,,,,,
COc1ccc2[nH]c(C(=O)N3CC(CCl)c4c3cc(N)c3ccccc43)cc2c1 (stereo not given),< 0.01,< 0.0261,,< 0.0112 µM,< 0.01 µM,,0.0285,> 100,1.09,< 0.0109,> 100,,,,,,,,
COCC12CCC(OC)C34C5CC6(O)C(OC)CC(OC(C)=O)(C5C6OC(=O)c5ccccc5)C(C(OC)C13)C4N(C)C2 (stereo not given),> 100,> 100,> 100,> 100 µM,> 100 µM,> 100,> 100,> 100,> 100,> 100,,,,,,,,,
O=C(N/N=C(/COc1ccccc1Cl)N=Cc1ccncc1)c1ccncc1,> 100,> 100,> 100,,> 100 µM,> 100,> 100,> 100,> 100,> 100,> 100,,,,,,,,
N=c1oc2ccccc2cc1-c1nc2ccccc2c(=O)[nH]1,> 100,> 100,> 100,> 100 µM,> 100 µM,> 100,> 100,,> 100,,> 100,,,,,,,,
CCCCCCCCCCCCCCCCCC(=O)Nc1ccn(C2CCC(COP(=O)(O)O)O2)c(=O)n1 (stereo not given),> 100,> 100,,> 100 µM,> 100 µM,> 100,> 100,> 100,> 100,> 100,> 100,,,,,,,,
COc1cc2c(cc1OC)[C@@](C)(C(O)C(O)C(C)(C)O)NCC2 (stereo not given in full),> 100,> 100,,> 100 µM,,> 100,> 100,> 100,> 100,> 100,> 100,,,,,,,,
S=c1sc2cscc2s1,33,,53.8,70.6 µM,32.8 µM,41.1,> 100,54.9,37.7,97.7,> 100,,,,,,,,
C[n+]1c2ccccc2c(/C=N\NS(=O)(=O)c2ccc(Cl)cc2)c2ccccc21,> 100,,> 100,> 100 µM,> 100 µM,> 100,> 100,> 100,> 100,> 100,> 100,,,,,,,,
COC1=C2C=[N+](C)C3C(=C2C=CC1OC)Cc1cc2c(cc13)OCO2 (stereo not given),22.3,28.1,,23.2 µM,,47.4,29.6,13.7,31.5,30.6,42.5,,,,,,,,
CC(=O)OCCCCn1cc(Cn2ccc(=O)n(Cc3cn(CCCCOC(C)=O)nn3)c2=O)nn1,> 100,> 100,,> 100 µM,> 100 µM,> 100,> 100,> 100,> 100,> 100,,,,,,,,,
Cc1c2ccccc2c(C)n2c1nc1ccccc12,,35.3,20.1,16 µM,22.7 µM,22.5,,21.8,> 100,30.7,> 100,,,,,,,,
CCOC(=O)C(=O)CC(=O)C1=C(c2ccccc2OC)CC(c2cccs2)=CC1=O,,> 100,> 100,> 100 µM,,> 100,> 100,> 100,> 100,> 100,> 100,,,,,,,,
O=C(O)CNC(=O)c1ccc2cc(C(=O)N3CC(CCl)c4ccc([N+](=O)[O-])cc43)[nH]c2c1 (stereo not given),> 100,> 100,> 100,> 100 µM,,,> 100,> 100,> 100,> 100,,,,,,,,,
Cc1ccc(S(=O)(=O)n2ccc(-c3ccc4ccn(S(=O)(=O)c5ccc(C)cc5)c4c3)c2)cc1,> 100,> 100,,> 100 µM,> 100 µM,,> 100,> 100,> 100,> 100,> 100,,,,,,,,
CNC(=S)NNc1ncnc2c1ncn2-c1ccc(C)cc1,> 100,> 100,> 100,> 100 µM,,> 100,> 100,> 100,> 100,> 100,> 100,,,,,,,,
COc1ccc([C@]23CCN4COC[C@@H]([C@H]42)C2(CC3)OCC(C)(C)CO2)cc1OC,> 100,> 100,> 100,> 100 µM,> 100 µM,> 100,> 100,,> 100,> 100,> 100,,,,,,,,
COP(=O)(O)C(N)Cc1c[nH]c2ccccc12 (stereo not given),> 100,,> 100,> 100 µM,> 100 µM,> 100,> 100,> 100,> 100,> 100,> 100,,,,,,,,
COc1ccc2c(c1)CCN1CCCc3ccccc3C21 (stereo not given),> 100,86.6,,> 100 µM,80.8 µM,> 100,> 100,> 100,92.8,> 100,> 100,,,,,,,,
